Reference: ChEMBL document CHEMBL5465560, “Selectivity Literature for EUbOPEN Chemogenomic Library” (2024)
Blank lines part the entries; values can stand above or below the molecule they belong to.

Legend:
[1] = biological target: Phosphatidylinositol 4-phosphate 5-kinase type-1 alpha (Homo sapiens) (UniProt Q99755); experiment: Selectivity interaction (KinomeScan (DiscoverX)) EUB0001868a PIP5K1A; settings: at 1 µM
[2] = biological target: T1, Interleukin-1 receptor-associated kinase 3 (Homo sapiens) (UniProt Q9Y616); experiment: Selectivity interaction (KinomeScan (DiscoverX)) EUB0001049a IRAK3; settings: at 1 µM
T1 sequence (whole entry): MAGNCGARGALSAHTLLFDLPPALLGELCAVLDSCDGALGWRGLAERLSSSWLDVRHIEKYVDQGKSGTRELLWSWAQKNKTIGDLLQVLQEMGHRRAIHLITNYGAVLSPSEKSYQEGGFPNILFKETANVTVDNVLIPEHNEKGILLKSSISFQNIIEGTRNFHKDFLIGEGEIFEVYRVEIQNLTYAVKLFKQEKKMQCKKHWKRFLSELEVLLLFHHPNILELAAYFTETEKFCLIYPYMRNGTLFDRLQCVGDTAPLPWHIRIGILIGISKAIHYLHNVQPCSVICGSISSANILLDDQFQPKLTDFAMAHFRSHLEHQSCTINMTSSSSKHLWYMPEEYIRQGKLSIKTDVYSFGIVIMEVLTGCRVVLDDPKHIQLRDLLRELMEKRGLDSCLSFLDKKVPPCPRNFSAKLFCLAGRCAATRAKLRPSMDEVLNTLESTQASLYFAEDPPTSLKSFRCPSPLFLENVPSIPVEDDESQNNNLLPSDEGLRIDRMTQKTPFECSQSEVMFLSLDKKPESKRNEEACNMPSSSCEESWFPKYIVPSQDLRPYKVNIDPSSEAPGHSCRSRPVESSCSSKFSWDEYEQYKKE

[3] = biological target: T2, Phosphatidylinositol 4,5-bisphosphate 3-kinase catalytic subunit delta isoform (Homo sapiens) (UniProt O00329); experiment: Selectivity interaction (Ambit KINOMEscan and KiNATiv profiling in Jurkat cells) EUB0000090b PIK3CD; assay type: cell-based; settings: at 1 µM
T2 sequence (whole entry): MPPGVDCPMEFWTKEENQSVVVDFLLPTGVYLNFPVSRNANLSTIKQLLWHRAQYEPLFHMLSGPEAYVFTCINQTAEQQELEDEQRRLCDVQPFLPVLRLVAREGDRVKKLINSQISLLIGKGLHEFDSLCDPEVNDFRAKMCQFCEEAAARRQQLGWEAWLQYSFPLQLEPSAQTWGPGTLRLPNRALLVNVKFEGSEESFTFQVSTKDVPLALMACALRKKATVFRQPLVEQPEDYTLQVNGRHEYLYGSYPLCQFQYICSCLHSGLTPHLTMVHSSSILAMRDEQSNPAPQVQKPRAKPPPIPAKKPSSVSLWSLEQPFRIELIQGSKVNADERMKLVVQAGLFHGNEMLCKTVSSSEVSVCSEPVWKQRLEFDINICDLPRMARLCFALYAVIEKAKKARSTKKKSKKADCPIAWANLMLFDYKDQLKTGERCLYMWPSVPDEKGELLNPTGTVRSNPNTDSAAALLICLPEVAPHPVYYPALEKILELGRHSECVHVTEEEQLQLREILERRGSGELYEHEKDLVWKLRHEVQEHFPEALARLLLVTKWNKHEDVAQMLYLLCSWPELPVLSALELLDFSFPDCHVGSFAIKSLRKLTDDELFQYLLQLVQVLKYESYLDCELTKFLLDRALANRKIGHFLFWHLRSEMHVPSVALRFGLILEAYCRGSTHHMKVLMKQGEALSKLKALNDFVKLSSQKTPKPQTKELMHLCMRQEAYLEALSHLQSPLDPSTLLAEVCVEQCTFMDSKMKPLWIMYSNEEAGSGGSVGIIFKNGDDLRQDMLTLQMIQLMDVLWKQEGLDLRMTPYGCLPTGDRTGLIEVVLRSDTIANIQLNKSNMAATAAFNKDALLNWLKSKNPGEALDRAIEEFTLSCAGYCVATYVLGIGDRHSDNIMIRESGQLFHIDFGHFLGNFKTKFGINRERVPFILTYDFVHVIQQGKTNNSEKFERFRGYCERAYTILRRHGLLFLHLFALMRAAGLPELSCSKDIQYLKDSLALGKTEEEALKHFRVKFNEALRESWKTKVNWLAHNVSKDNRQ

[4] = biological target: Serine/threonine-protein kinase 38 (Homo sapiens) (UniProt Q15208); experiment: Selectivity interaction (Ambit KINOMEscan and KiNATiv profiling in Jurkat cells) EUB0000090b STK38; assay type: cell-based; settings: at 1 µM
[5] = biological target: Cyclin-dependent kinase 5 (Homo sapiens, UniProt Q00535); experiment: Selectivity interaction (ActivX KiNativ screen (kinase selectivity in THP-1 cell lysates)) EUB0000639a CDK5; assay type: subcellular; settings: lysate, at 1 µM
[6] = biological target: Mitogen-activated protein kinase kinase kinase 10 (Homo sapiens) (UniProt Q02779); experiment: Selectivity interaction (KinomeScan (DiscoverX)) EUB0001079a MAP3K10; settings: at 1 µM
[7] = biological target: Tyrosine-protein kinase Srms (Homo sapiens) (UniProt Q9H3Y6); experiment: Selectivity interaction (KinomeScan (DiscoverX)) EUB0000045b SRMS
[8] = biological target: T3, Serine/threonine-protein kinase TBK1 (Homo sapiens) (UniProt Q9UHD2); experiment: Selectivity interaction (KinomeScan (DiscoverX)) EUB0000618a TBK1; settings: at 10 µM
T3 sequence (whole entry): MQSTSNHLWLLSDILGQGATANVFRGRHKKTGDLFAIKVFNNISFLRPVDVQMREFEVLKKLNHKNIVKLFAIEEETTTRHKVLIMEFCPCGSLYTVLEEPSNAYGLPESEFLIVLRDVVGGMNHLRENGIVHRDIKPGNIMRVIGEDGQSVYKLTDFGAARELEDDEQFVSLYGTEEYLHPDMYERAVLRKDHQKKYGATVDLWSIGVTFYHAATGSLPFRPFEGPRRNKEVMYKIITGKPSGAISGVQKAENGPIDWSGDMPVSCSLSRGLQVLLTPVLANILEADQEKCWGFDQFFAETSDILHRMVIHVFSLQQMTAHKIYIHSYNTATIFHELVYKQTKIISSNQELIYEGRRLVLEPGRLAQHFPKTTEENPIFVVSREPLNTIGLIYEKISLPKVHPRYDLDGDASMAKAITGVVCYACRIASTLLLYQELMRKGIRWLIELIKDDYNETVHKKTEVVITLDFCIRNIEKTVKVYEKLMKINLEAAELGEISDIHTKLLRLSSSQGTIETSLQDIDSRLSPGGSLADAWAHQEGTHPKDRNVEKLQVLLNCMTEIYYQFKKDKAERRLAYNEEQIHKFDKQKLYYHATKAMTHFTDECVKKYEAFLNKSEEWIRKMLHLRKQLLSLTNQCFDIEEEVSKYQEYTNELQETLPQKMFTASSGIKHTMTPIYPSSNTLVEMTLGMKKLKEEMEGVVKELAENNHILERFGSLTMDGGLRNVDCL

[9] = biological target: Mitogen-activated protein kinase 14 (Homo sapiens, UniProt Q16539); settings: at 10 µM
[10] = biological target: Mitogen-activated protein kinase 9 (Homo sapiens, UniProt P45984); experiment: Selectivity interaction (SelectScreen profiling (Invitrogen)) EUB0000607a MAPK9; settings: at 2 µM
Mitogen-activated protein kinase 9, sequence (P45984 whole entry, looked up): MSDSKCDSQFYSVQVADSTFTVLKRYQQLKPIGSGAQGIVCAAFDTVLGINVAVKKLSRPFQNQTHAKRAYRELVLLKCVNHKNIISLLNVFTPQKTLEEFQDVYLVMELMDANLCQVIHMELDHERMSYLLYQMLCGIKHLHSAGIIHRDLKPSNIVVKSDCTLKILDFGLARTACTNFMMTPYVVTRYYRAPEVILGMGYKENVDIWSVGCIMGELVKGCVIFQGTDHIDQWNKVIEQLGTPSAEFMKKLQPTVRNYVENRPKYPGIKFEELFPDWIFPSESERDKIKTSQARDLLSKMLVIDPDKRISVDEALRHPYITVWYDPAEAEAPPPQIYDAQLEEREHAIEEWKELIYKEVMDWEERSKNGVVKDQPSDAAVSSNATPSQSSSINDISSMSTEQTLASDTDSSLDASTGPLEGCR

Tyrosine-protein kinase Srms (Homo sapiens), sequence (Q9H3Y6 whole entry): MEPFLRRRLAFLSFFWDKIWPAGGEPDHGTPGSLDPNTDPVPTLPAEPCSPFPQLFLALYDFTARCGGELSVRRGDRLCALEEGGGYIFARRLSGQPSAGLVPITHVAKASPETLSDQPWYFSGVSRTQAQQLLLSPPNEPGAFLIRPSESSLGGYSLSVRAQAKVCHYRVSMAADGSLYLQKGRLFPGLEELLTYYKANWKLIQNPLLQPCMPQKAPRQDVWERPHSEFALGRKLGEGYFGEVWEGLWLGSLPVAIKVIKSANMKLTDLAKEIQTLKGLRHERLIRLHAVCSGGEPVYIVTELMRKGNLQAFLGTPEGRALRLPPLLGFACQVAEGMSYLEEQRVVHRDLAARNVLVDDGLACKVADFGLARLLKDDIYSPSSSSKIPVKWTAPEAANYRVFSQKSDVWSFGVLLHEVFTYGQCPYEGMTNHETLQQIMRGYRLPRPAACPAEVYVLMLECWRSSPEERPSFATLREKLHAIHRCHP
Phosphatidylinositol 4-phosphate 5-kinase type-1 alpha (Homo sapiens), sequence (Q99755 whole entry): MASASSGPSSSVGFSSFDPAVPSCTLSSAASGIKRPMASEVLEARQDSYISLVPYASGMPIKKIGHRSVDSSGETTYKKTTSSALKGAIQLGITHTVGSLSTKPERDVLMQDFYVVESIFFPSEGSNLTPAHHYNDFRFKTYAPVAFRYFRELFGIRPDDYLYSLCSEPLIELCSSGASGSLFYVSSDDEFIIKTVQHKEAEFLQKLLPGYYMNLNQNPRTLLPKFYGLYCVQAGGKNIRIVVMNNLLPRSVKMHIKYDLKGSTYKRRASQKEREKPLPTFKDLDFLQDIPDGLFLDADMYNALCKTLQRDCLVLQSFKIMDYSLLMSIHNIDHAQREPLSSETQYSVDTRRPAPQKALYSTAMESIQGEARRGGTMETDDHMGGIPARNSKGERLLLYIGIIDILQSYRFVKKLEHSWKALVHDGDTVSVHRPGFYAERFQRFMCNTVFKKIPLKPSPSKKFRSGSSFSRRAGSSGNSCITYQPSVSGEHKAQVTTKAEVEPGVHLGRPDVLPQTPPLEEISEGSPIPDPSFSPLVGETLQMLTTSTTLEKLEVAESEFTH
Serine/threonine-protein kinase 38 (Homo sapiens), sequence (Q15208 2-465 limits assumed): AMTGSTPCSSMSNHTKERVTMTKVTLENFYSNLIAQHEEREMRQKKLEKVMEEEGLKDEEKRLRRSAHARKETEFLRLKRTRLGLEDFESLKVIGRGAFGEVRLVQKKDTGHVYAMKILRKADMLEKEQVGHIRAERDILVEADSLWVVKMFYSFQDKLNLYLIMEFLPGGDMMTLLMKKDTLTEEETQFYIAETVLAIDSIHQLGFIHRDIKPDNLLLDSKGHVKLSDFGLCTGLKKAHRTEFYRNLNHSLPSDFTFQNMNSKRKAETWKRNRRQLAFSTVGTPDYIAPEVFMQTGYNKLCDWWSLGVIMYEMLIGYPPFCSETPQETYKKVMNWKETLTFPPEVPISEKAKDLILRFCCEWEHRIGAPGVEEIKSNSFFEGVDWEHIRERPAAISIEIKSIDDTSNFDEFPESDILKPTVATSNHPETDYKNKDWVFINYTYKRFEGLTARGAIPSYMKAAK
Mitogen-activated protein kinase kinase kinase 10 (Homo sapiens), sequence (Q02779 whole entry, looked up): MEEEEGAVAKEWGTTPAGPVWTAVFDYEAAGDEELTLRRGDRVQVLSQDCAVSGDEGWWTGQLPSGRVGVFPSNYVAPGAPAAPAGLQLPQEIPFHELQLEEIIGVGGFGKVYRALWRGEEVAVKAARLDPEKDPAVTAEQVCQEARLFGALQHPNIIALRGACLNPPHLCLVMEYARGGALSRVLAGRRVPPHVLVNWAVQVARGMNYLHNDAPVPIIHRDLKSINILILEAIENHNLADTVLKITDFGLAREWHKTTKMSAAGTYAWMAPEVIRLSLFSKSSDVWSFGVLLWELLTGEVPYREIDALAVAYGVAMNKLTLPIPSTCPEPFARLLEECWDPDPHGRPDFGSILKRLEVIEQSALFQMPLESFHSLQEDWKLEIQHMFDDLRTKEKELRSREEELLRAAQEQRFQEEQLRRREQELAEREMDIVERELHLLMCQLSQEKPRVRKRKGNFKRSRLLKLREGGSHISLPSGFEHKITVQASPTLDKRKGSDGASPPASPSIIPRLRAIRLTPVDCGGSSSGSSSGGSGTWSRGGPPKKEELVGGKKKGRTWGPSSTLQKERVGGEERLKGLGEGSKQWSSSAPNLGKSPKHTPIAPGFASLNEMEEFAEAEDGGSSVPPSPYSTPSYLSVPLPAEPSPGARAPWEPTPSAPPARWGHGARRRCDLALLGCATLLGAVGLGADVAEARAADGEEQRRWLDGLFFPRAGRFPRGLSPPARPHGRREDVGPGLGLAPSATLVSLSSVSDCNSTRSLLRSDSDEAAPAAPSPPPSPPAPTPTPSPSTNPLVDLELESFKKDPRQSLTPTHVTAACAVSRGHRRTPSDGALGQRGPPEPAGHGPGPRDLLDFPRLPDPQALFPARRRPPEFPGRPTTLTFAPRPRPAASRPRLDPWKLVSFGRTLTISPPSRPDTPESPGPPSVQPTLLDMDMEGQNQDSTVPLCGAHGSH
Mitogen-activated protein kinase 14, sequence (Q16539 whole entry): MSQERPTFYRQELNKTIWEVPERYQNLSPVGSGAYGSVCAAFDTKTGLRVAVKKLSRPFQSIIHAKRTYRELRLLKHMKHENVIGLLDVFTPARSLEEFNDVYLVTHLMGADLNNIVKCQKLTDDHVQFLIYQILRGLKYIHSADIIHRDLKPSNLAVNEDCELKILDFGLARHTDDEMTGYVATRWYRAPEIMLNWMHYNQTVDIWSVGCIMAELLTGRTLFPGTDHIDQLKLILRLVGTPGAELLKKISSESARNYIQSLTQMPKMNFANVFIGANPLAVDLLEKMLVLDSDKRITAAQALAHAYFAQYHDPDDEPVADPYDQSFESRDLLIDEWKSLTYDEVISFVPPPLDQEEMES
Cyclin-dependent kinase 5, sequence (Q00535 whole entry, looked up): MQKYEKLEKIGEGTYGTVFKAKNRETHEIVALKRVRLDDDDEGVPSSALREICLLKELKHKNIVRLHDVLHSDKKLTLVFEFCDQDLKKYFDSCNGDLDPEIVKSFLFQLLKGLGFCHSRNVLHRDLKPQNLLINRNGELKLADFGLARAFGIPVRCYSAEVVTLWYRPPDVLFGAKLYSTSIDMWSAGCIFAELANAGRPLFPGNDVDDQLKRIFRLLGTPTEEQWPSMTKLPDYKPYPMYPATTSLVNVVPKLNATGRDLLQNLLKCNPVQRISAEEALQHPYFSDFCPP

% of control [1]: 28%
Structure (SMILES): Cc1cc(-c2ccnc(Nc3cnn(C)c3)n2)ccc1CNC(=O)N1CC(OC(C)C)C1

Structure (SMILES): COc1cc(Nc2nc(C)cc(-c3cnn4nc(OC)ccc34)n2)cc(C(F)(F)F)c1
% of control [2]: 89%

Structure (SMILES): CN(C)C/C=C/C(=O)Nc1ccc(C(=O)N2CCCC(Nc3ncc(Cl)c(-c4c[nH]c5ccccc45)n3)C2)cc1 (stereo unspecified)
% of control [3]: 100%
% of control [4]: 100%

% of inhibition [5]: -3.5%
Structure (SMILES): CC[C@@H]1[C@H](F)C(=O)N[C@@H]1COc1nccc2cc(C(N)=O)c(OC)cc12 [ZIMLOVISERTIB]

Structure (SMILES): Nc1cnc(N2CCc3cc(S(=O)(=O)Nc4c(F)cc(Cl)cc4F)cc(N4CCCC4=O)c32)nc1 [TP-020n]
% of control [6]: 75%

Structure (SMILES): C=CC(=O)Nc1cc(-n2c(=O)ccc3cnc4ccc(-c5ccc(NS(C)(=O)=O)cc5)cc4c32)ccc1C
% of control ([7]; at 1 µM): 100%
% of control ([7]; at 10 µM): 100%

Structure (SMILES): O[C@H]1CC[C@H](Nc2ncc3nc(Nc4c(F)cc(F)cc4F)n([C@H]4CCOC4)c3n2)CC1
% of control [8]: 74%
% of control [9]: 3.4%

Structure (SMILES): CNC(=O)Nc1ccc(-c2nc(N3CC4CCC(C3)O4)c3cnn(C4CCC5(CC4)OCCO5)c3n2)cc1
% of inhibition [10]: 11%
